Columns and labels:
[1] = target: T1, pocket formed by mL40, uL5m, and rRNA H84-ES3 (central protuberance of mtLSU) (Neurospora crassa, UniProt Q1K6P0+V5IQE0); test: cryo-EM structure; assay type: binding; settings: co-purified endogenous ligand; assignment 'most likely'; Arg295 of mL40 stacks on nicotinamide; rRNA part of site; oxidation state not stated
T1 construct: gene mrpl28; native proteins within the mtLSU of intact mitoribosomes; site also formed by 23S rRNA (H84-ES3, A2755, U2759)

[2] = target: T2, mS29 (mitoribosomal small subunit) (Neurospora crassa, UniProt Q7SD06); test: cryo-EM structure; assay type: binding; settings: co-purified endogenous nucleotide in P-loop pocket; assigned as ATP rather than GDP from density and chemical environment (Leu150); local resolution 2.77 A
T2 construct: gene rsm23; native mS29 within the mtSSU of intact mitoribosomes purified from mycelia mitochondria; His-tag is on Oxa1 only
T2 sequence (Q7SD06 1-469): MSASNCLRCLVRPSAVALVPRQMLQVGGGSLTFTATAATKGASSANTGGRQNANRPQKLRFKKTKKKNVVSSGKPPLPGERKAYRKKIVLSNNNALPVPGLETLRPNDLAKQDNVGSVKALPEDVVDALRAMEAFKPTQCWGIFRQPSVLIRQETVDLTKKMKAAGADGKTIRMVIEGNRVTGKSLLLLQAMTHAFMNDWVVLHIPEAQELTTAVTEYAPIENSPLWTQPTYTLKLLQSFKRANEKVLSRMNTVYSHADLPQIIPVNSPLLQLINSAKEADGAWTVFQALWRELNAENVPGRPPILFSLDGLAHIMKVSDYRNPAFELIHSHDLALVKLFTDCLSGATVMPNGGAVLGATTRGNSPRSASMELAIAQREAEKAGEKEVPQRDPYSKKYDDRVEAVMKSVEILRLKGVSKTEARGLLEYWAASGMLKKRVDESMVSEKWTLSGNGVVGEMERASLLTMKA

T1 sequence (Q1K6P0 whole entry): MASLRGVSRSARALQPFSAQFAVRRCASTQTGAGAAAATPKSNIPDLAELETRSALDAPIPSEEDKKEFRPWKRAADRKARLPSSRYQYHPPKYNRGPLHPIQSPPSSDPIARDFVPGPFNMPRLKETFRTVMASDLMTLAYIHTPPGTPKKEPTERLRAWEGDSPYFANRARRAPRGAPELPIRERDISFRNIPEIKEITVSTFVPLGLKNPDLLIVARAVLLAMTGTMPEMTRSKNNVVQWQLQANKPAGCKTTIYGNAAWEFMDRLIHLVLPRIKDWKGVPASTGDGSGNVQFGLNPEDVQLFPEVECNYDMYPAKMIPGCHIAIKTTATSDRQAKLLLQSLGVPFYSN
T1 sequence (V5IQE0 whole entry): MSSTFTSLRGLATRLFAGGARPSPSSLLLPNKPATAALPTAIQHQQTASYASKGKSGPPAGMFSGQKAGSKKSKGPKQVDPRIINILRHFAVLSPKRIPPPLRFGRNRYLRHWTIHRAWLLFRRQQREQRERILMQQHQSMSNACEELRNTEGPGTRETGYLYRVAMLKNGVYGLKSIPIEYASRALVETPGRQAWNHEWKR

| SMILES | cryo-EM structure [1] | cryo-EM structure [2] |
| --- | --- | --- |
| NC(=O)c1ccc[n+]([C@@H]2O[C@H](COP(=O)([O-])OP(=O)(O)OC[C@H]3O[C@@H](n4cnc5c(N)ncnc54)[C@H](O)[C@@H]3O)[C@@H](O)[C@H]2O)c1 [NAD] | we conclude that it is most likely to be NAD |  |
| Nc1ncnc2c1ncn2[C@@H]1O[C@H](COP(=O)(O)OP(=O)(O)OP(=O)(O)O)[C@@H](O)[C@H]1O [ATP] |  | the correct assignment for the nucleotide is adenosine triphosphate (ATP) |

From paper PMC7560712, “Analysis of translating mitoribosome reveals functional characteristics of translation in mitochondria of fungi” (Nature Communications, 2020)
